Reference: patent US8183238B2, “Bicyclic and tricyclic compounds as KAT II inhibitors” (priority 2009, dated 2012)
Like-named read-outs stand apart in the source and are kept apart here.

Columns and labels:
[1] = Prodrug in vivo pharmacokinetics in monkeys (plasma, LC-MS-MS); conditions: Cynomolgus, cynomolgus monkey, iv, 0.3 mg/kg, plasma exposure of Example 4 in monkeys following intravenous administration of Example 4 at 0.3 mg/kg
[2] = Prodrug in vivo pharmacokinetics in dogs (plasma, LC-MS-MS); parameters: species or system Dog (Beagle); conditions: Beagle, dog, in vivo, po, 1 mg/kg
Procedure: Test substances (Examples 4 and 71-73) were administered by oral gavage to groups of two dogs. Example 71 was also administered intravenously.
Blood samples were taken at various times after administration and submitted to analysis for the parent drug (Example 71) and pro-drug (Examples 72 and 73) using an LC-MS-MS assay. Pharmacokinetic parameters derived from the plasma analytical data were determined using Watson LIMS 7.2.003 (Thermo Fisher Scientific, Waltham, Mass.). The results are given in FIG. 1 and Tables 8, 9, 10, and 11.

[3] = Prodrug in vivo pharmacokinetics in rats (plasma, LC-MS-MS); conditions: Wistar-Han, rat
Procedure: Test substances (Examples 4, 73, and 366-369) were administered by oral gavage to groups of three rats.
Blood samples were taken at various times after administration and analyzed for the parent drug (Example 4) and prodrugs (Examples 73 and 366-369) using an LC-MS-MS assay. Pharmacokinetic parameters derived from the plasma analytical data were determined using Watson LIMS version 7.2.003 (Thermo Fisher Scientific, Waltham, Mass.).

[4] = molecular target: human KAT II (hKAT II) enzyme (Homo sapiens, UniProt Q8N5Z0); test: KAT II Inhibition Spectra Assay; type: biochemical; conditions: Table 5; hKAT II, decrease in OD370, 37° C., 15-20 h; read-out: KATII IC50
Chain of human KAT II (hKAT II) enzyme (Q8N5Z0 30-425): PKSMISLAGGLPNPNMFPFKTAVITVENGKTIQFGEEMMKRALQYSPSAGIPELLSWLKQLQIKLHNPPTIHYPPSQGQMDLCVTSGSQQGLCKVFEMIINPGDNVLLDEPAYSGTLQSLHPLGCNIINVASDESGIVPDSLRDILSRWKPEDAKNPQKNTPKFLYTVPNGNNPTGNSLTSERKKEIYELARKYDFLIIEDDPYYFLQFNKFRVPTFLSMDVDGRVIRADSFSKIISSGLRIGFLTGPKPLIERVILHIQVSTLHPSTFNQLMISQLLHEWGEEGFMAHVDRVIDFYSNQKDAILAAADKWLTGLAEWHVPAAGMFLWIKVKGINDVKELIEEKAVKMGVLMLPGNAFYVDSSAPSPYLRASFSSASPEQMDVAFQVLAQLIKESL
How it was run: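 hKAT II (15 nM, 3× stock) converts L-kynurenine (3 mM, 3× stock) with α-ketoglutarate and PLP in Tris acetate; 15–20 h at 37 °C. Inhibition of the OD370 decrease read versus DMSO wells across a concentration range gives IC50.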

[5] = Prodrug in vivo pharmacokinetics in monkeys (plasma, LC-MS-MS); parameters: species or system Monkey (Cynomolgus); conditions: Example 4 in monkey plasma after oral Example 4 (10 mg/kg active); for Cmax / Tmax / half-life / AUC: Cynomolgus, cynomolgus monkey, plasma, po, 10 mg/kg; for F: calculated using IV AUC of 265 ng · h/mL
Procedure: Test substances (Examples 4 and 71-73) were administered by oral gavage to groups of two monkeys.
Blood samples were taken at various times after administration and submitted to analysis for the parent drug (Example 4 and Example 71) and pro-drug (Examples 72 and 73) using an LC-MS-MS assay. […] Pharmacokinetic parameters derived from the plasma analytical data were determined using Watson LIMS 7.2.003 (Thermo Fisher Scientific, Waltham, Mass.). The results are given in FIG. 2 and Tables 13, 14, and 15.

N[C@H]1Cc2ccccc2N(O)C1=O [Example 4, (3S)-3-amino-1-hydroxy-3,4-dihydroquinolin-2(1H)-one]
AUC [1]: 265 ng·h/mL | AUC increase vs. oral administration of Ex. 4 [2]: 1.0 | AUC increase vs. oral administration of Ex. 4 [3]: 1.0 | IC50 [4]: 0.0375 µM | Cmax ([5]; Mean): 220 ng/mL | Tmax ([5]; Mean): 41.4 min | half-life ([5]; Mean): 43.8 min | AUC ([5]; Mean, read-out: AUC): 181 ng·h/mL | AUC ([5]; Mean, read-out: AUC Extrap): 186 ng·h/mL | Cmax ([5]; Monkey 1): 200 ng/mL | Tmax ([5]; Monkey 1): 60 min | half-life ([5]; Monkey 1): 46.8 min | AUC ([5]; Monkey 1, read-out: AUC): 184 ng·h/mL | AUC ([5]; Monkey 1, read-out: AUC Extrap): 188 ng·h/mL | Cmax ([5]; Monkey 2): 340 ng/mL | Tmax ([5]; Monkey 2): 15 min | half-life ([5]; Monkey 2): 49.2 min | AUC ([5]; Monkey 2, read-out: AUC): 239 ng·h/mL | AUC ([5]; Monkey 2, read-out: AUC Extrap): 247 ng·h/mL | Cmax ([5]; Monkey 3): 206 ng/mL | Tmax ([5]; Monkey 3): 30 min | half-life ([5]; Monkey 3): 40.8 min | AUC ([5]; Monkey 3, read-out: AUC): 141 ng·h/mL | AUC ([5]; Monkey 3, read-out: AUC Extrap): 144 ng·h/mL | Cmax ([5]; Monkey 4): 133 ng/mL | Tmax ([5]; Monkey 4): 60 min | half-life ([5]; Monkey 4): 37.8 min | AUC ([5]; Monkey 4, read-out: AUC): 159 ng·h/mL | AUC ([5]; Monkey 4, read-out: AUC Extrap): 163 ng·h/mL | % AUC Extrap ([5]; Mean): 2.46% | % AUC Extrap ([5]; Monkey 1): 2.28% | % AUC Extrap ([5]; Monkey 2): 3.05% | % AUC Extrap ([5]; Monkey 3): 1.96% | % AUC Extrap ([5]; Monkey 4): 2.56% | F ([5]; Mean): 2.1% | F ([5]; Monkey 1): 2.1% | F ([5]; Monkey 2): 2.8% | F ([5]; Monkey 3): 1.6% | F ([5]; Monkey 4): 1.8%
